Results as given in publication PMC10380377 (International Journal of Molecular Sciences, 2023).
Positions of bridges follow the written chain, without caps; N, C: chain ends. Residues, ends and D or L forms follow the SMILES beside them.

Legend:
human Kv1.6 = molecular target: T1, human Kv1.6 (Homo sapiens, UniProt P17658); assay: cell-based; type: cell-based
T1 construct: expressed in transfected cells; host or cells: Xenopus laevis oocytes injected with cRNA (pSGEM clone, T7 transcription)

human Kv11.1 [1] = molecular target: T2, human Kv11.1 (Homo sapiens, UniProt Q12809)
human Kv11.1 [2] = molecular target: T2, human Kv11.1; assay: in vitro; details: pH 7.2
Kv10.1 potassium channel = type: cell-based, human
human Kv10.1 = molecular target: T3, human Kv10.1 (Homo sapiens, UniProt O95259); assay: cell-based
T3 construct: expressed in transfected cells; host or cells: Xenopus laevis oocytes injected with cRNA (pSGEM clone, T7 transcription)
T3 sequence (O95259 1-989): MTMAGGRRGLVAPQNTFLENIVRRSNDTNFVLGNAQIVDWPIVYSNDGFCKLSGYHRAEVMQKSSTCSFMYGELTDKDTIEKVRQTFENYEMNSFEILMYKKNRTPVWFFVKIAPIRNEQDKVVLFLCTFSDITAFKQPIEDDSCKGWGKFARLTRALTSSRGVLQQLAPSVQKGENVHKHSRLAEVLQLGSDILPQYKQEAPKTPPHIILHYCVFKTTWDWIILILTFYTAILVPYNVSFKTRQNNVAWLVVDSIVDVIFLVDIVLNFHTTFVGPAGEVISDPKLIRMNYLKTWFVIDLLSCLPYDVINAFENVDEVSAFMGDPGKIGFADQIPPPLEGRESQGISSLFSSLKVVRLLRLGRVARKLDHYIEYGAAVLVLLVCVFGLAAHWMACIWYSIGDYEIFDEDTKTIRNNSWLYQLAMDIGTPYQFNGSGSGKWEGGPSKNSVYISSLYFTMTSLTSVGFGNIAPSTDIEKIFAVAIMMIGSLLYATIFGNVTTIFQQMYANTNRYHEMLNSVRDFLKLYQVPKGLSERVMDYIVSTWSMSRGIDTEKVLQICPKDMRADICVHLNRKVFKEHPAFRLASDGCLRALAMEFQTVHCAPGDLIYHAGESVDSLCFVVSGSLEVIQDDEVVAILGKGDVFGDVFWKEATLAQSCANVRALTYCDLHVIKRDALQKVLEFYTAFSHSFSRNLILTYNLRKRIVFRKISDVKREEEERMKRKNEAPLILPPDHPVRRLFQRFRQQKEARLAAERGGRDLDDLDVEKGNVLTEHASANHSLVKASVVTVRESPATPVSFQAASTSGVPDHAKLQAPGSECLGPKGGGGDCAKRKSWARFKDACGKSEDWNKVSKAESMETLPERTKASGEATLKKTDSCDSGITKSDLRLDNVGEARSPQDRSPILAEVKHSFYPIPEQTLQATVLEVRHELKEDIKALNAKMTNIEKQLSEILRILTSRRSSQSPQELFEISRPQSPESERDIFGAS

T1 sequence (P17658 whole entry): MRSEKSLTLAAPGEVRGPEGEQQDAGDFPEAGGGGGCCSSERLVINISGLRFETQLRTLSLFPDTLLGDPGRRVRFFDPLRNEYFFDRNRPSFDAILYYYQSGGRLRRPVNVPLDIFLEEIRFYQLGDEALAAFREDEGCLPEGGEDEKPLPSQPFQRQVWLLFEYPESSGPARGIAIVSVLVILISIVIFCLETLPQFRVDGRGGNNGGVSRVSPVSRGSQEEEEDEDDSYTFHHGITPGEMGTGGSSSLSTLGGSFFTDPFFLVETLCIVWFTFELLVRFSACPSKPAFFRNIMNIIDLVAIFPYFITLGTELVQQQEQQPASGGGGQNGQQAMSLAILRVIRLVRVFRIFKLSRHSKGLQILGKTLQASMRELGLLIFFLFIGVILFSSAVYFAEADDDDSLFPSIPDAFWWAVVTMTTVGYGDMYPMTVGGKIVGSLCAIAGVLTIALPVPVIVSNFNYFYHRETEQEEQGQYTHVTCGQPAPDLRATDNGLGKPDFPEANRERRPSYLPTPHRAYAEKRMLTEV
T2 sequence (Q12809 whole entry): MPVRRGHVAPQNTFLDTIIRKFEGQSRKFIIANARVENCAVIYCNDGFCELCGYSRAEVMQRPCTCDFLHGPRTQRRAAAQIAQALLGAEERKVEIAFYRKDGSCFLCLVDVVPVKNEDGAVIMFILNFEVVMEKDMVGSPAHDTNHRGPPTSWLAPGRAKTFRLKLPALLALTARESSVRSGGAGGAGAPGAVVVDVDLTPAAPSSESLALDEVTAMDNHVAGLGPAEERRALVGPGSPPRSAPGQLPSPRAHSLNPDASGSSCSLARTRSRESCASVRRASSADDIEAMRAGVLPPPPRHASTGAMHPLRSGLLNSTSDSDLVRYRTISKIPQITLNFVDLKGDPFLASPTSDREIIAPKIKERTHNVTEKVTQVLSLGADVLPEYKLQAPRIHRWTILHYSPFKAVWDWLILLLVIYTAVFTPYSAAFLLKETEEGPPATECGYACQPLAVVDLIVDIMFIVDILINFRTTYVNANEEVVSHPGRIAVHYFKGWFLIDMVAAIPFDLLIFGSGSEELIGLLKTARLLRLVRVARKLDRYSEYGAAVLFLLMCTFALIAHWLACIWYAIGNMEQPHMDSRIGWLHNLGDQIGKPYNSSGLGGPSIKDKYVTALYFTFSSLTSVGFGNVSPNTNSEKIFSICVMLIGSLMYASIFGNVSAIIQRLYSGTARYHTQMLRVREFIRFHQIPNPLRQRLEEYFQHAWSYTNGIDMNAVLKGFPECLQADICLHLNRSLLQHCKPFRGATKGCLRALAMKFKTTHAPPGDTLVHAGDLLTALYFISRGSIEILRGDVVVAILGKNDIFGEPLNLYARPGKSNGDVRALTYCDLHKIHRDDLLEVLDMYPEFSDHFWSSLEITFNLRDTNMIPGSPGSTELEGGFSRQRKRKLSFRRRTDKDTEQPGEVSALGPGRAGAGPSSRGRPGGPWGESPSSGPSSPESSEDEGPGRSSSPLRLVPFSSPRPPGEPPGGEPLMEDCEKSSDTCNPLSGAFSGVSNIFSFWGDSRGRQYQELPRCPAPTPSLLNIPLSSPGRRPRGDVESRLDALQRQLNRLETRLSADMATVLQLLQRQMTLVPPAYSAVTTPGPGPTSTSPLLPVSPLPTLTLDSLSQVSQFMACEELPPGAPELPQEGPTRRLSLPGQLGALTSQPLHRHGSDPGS

**Q.** With CC[C@H](C)[C@H](NC(=O)[C@@H]1CSSC[C@@H]2NC(=O)[C@H](C(C)C)NC(=O)[C@H](CC(C)C)NC(=O)CNC(=O)[C@H](CC(C)C)NC(=O)CNC(=O)[C@@H]3CCCN3C(=O)[C@H](CC(C)C)NC(=O)CNC(=O)[C@@H]3CSSC[C@H](NC(=O)[C@H](C)NC(=O)CNC(=O)[C@H](CCCNC(=N)N)NC(=O)[C@H](CSSC[C@H](NC(=O)CN)C(=O)NCC(=O)N[C@@H](C(C)C)C(=O)N[C@@H](CC(=O)O)C(=O)NCC(=O)N[C@@H](CCC(N)=O)C(=O)N[C@@H](Cc4ccccc4)C(=O)N3)NC2=O)C(=O)N[C@@H](Cc2ccccc2)C(=O)N[C@@H](CC(C)C)C(=O)N[C@@H](C(C)C)C(=O)N1)C(=O)N[C@@H](Cc1ccc(O)cc1)C(=O)N[C@H](C(=O)N1CCC[C@H]1C(=O)O)[C@@H](C)CC [κO-SrVIA] (H-GCGVDGQFCGLPGLGLVCCRGACFLVCIYIP-OH; disulfide 2-19, 9-23, 18-27) as the compound, how does the Hill coefficient (human Kv1.6) read?
**A.** 3.35 ± 0.44

**Q.** What about the “effect on Kv1.6” value (human Kv1.6) of the same compound?
**A.** no effect

**Q.** What about the inhibition at 4 µM (human Kv1.6) of the same compound?
**A.** < 50%

**Q.** What about the Hill coefficient (human Kv11.1 [1]) of the same compound?
**A.** 2.85 ± 0.46

**Q.** What about the inhibition at 0.4 µM (human Kv11.1 [2]) of the same compound?
**A.** 10%

**Q.** What about the “inhibitory activity on the Kv10.1 channel” value (Kv10.1 potassium channel) of the same compound?
**A.** the only fraction that had inhibitory activity on the Kv10.1 channel

**Q.** What about the Hill coefficient (human Kv10.1) of the same compound?
**A.** 1.86 ± 0.25

**Q.** And the inhibition at 0.4 µM (human Kv10.1; read-out: inhibitory activity)?
**A.** 10%
